The values below come from patent publication US20040106093A1, “Myb-transformed blood cells and their use for active ingredient screening” (priority 2001, published 2004).

Common to all, as to assay type: cell-based, chicken
The subject of experiment [1] is bFGF/v-myb-cells. In words: Proliferation assay of bFGF-stimulated bFGF/v-myb-cells with specific signalling inhibitors (3H-thymidine incorporation). Particulars: bFGF 25 ng/ml, FIG. 5B; for effect on bFGF induced bFGF/v-myb cell proliferation: proliferation without inhibitor set 100%, C; for reduction of bFGF induced bFGF/v-myb cell proliferation: GF 109203X 10 nM, Cyclosporin A 10 nM, KN-62 1 μM (methods). As to the method:
(§1) Cell proliferation was measured as ratio of DNA-synthesis by ^3H-thymidin-incorporation or use CellTiter96® (Promega). Briefly, the cells (4×10^4 cells/100 μl) were incubated in CFU-E-Medium (see above) with 0.8 μCi ^3H-thymidine (specific activity 29 Ci/mmol; Amersham, UK) for 2 hours at 37° C., brought onto filter plates and subjected to scintillation counting. The average values from triplicate samples were determined. The Celltiter96 MTS-assay was for 2 hours. Heparin (B. Braun, Melsungen, Germany) was used at 5 μg/ml. Inhibitors were used at the following concentrations: PD98059 (5 μM), PP2 (100 nM), U-73122 (1 μM), Worthmannin (100 nM), Cyclosporin A (10 nM), GF 109203X (10 nM) and KN-62 (1 μM) (all from Calbiochem).
(B) The bFGF/v-myb-cells were stimulated with bFGF and with specific inhibitors (for details see methods). Cell proliferation was measured in (A) per cent of proliferation in response to bFGF (25 ng/ml) and specific inhibitor is shown. Proliferation without inhibitor was arbitrarily set 100%.
(C) Dose response curve of the PLCy inhibitor U-73122 on bFGF/v-myb-cells in the presence of bFGF (25 ng/ml). Cell proliferation was measured by ^3H-thymidine incorporation assay as in (A). Two independent experiments arc shown.
A general note: Dividing cells build labelled thymidine or BrdU into new DNA.

In experiment [2] the test system is bFGF/v-myb-cells. The experiment can be described thus: FGF dose response in cell proliferation assay (MTT / 3H-thymidine incorporation). Particulars: for proliferative (mitogenic) response in the presence of heparin: heparin 5 μg/ml, 3H-thymidine incorporation, FIG. 5A; for stimulation of bFGF/v-myb-cell proliferation: serial dilutions starting at 100 ng/ml, without heparin, FIG. 4. As to the method:
as §1
FGF—dose response measured by cell proliferation assay (MTT). Serial dilutions of aFGF and bFGF, respectively, starting at 100 ng/ml are shown.
(A) Dose response curve of aFGF and bFGF in the presence or absence of heparin is shown. Cell proliferation was measured by ^3H-thymidine incorporation assay.

The test system of experiment [3] is blastoderm derived bFGF/v-myb-cells. In words: Growth factor requirements of blastoderm derived v-myb cells in culture. Particulars: bFGF 25 ng/ml, SCF 100 ng/ml, TGFα 5 ng/ml; factor alone; FIG. 2B. As for the experimental part: Blastoderm-derived cells (2 days incubation, Hamilton-stage HH 10-12) and bone marrow cells ([…]) were cocultivated for 2 days with a mitomycin C-treated virus or control (non-infected)-CEF in a CFU-E-medium (Beug et al., 1995, Methods Enzymol, 254, 41-76) containing bFGF (25 ng/ml, Promega), chicken-SCF (100 ng/ml; Bartunek et al., 1996, Cytokine, 8, 14-20), TGFα (5 ng/ml, Promega) or different combinations thereof, or no factors. After 2 days nonadherent cells were regenerated and cells were grown at 2×10^6 cells/ml. An outgrowth of myb transformed cells was routinely observed at day 5-7 and cell numbers were determined in regular time intervals using the cell counter and analyser system CASY-1 (Scharfe System, Reutlingen, Germany).
(B) Growth factor requirements of bFGF/v-myb-cells. The cumulative number of cells gown with various factors and combinations thereof are shown. Closed and open symbols refer to cells with an erythroid and myeloid phenotype, respectively.

Experiment [4] concerns bFGF/v-myb-cells. The experiment can be described thus: Erythroid differentiation assay (anaemic serum plus insulin). As to the method: To produce erythroid differentiation, cells were incubated in CFU-E-medium without ChS (2×10^6 cells/ml) supplemented with 3% anaemic chicken serum (as source for erythropoietin) plus 10 ng/ml recombinant human insulin (Novo Nordisk) in the presence or absence of 25 ng/ml bFGF. Erythroid differentiation was assessed by (1) determining haemoglobin accumulation in cytospin preparations that stained with neutral, and Diff-Quik (Baxter, Switzerland), or in haemoglobin assay (Beug et al., 1995, Methods Enzymol, 254, 41-76) (2), measuring reduction in cell size with the CASY-1 Cell Counter and Analyser System; and (3) loss of proliferative potential in ^3H-thymidine incorporation assays. Photographs were taken and processed as above.
Differentiation properties of bFGF/v-myb erythroid progenitor cells. Kinetics of the different differentiation parameters of bFGF/v-myb-cells. The number of cells, the cell volume, and the amount of haemoglobin were estimated during the 4-day differentiation in absence (AS, Ins) or presence of bFGF (AS, Ins+bFGF) or without factor (no). The cells remaining in bFGF are only shown as a control (bFGF).

Setting [5] is: differentiation induction in the presence of bFGF, FIG. 3.

`CC(C)=CCC/C(C)=C/CC/C(C)=C/CSc1ccccc1C(=O)O` [FTS]: the “effect on bFGF induced bFGF/v-myb cell proliferation” value (“effect” below) in the experiment on bFGF/v-myb-cells [1] is given as “neither Ras inhibitor FTS (inhibitor of famesylation) nor src family inhibitor PP-2 had any effect”.

In the case of `CC1(C)C(C=C(Cl)Cl)C1C(=O)OC(C#N)c1cccc(Oc2ccccc2)c1` (centres unmarked) [cypermethrin], the “reduction of bFGF induced bFGF/v-myb cell proliferation” value (shortened to “reduction”) in the experiment with bFGF/v-myb-cells [1] is recorded as 45%.

As to “bFGF: growth factor bFGF (basis fibroblast growth factor)”, in the experiment on bFGF/v-myb-cells [2], the “proliferative (mitogenic) response in the presence of heparin” value is “no further increase” and the “stimulation of bFGF/v-myb-cell proliferation” value was “induced a maximal stimulation”. Besides, the “phenotype / outgrowth of v-myb cells with growth factor” value in experiment [3] is given as “proliferating erythroid bFGF/v-myb-cells were obtained only in the presence of bFGF”. For the same compound, in the experiment with bFGF/v-myb-cells [4] (differentiation induced by anaemic serum and insulin in the presence of 25 ng/ml bFGF), the “ability to undergo terminal erythroid differentiation” value is listed as “completely blocked”. Further, in the experiment on bFGF/v-myb-cells [4] (setting [5]), the cell volume entry is on record as “approximately 500 μl” and the haemoglobin accumulation result is reported as “did not accumulate haemoglobin”.

As to “aFGF: acidic FGF, FGF-1, member of the FGF family”, in the experiment with bFGF/v-myb-cells [2], the “proliferative (mitogenic) response in the presence of heparin” value is “clear enhancement” and the “stimulation of bFGF/v-myb-cell proliferation” value is “only marginally if at all”.

For `COC[C@H]1OC(=O)c2coc3c2[C@@]1(C)C1=C(C3=O)[C@@H]2CCC(=O)[C@@]2(C)C[C@H]1OC(C)=O` [Worthmannin], the “effect” value in the experiment with bFGF/v-myb-cells [1] is reported as “ineffective”.

On to `CN(C)CCCn1cc(C2=C(c3c[nH]c4ccccc34)C(=O)NC2=O)c2ccccc21` [GF109203X], for which, in the experiment on bFGF/v-myb-cells [1], the “reduction” value amounted to 30%.

`COc1ccc2c(c1)CC[C@@H]1[C@@H]2CC[C@]2(C)[C@@H](NCCCCCCN3C(=O)C=CC3=O)CC[C@@H]12` [U-73122]: in the experiment with bFGF/v-myb-cells [1], the “effect” value is “dramatically reduced”.

In the case of TGFα: growth factor TGFα, in experiment [3], the “phenotype / outgrowth of v-myb cells with growth factor” value was “outgrowth exclusively of myeloid cells”.

As to cyclosporine A, in the experiment with bFGF/v-myb-cells [1], the “reduction” value stood at 45%.

With `COc1cccc(-c2cc(=O)c3ccccc3o2)c1N` [PD 98059], the “effect” value in the experiment with bFGF/v-myb-cells [1] is given as “partially inhibitory only at higher concentrations”.

`CN([C@@H](Cc1ccc(OS(=O)(=O)c2cccc3cnccc23)cc1)C(=O)N1CCN(c2ccccc2)CC1)S(=O)(=O)c1cccc2cnccc12` [KN-62]: the “reduction” value with bFGF/v-myb-cells [1] is recorded as “Sixty per cent”.
